# Where a name gives a salt, the structure may show the parent alone. Read-outs that look alike come from different tables or passages of the source.
# How the values were obtained:
# [1] = test system: primary rat microglia; assay: Cell toxicity (dead cells, size <150 μm2) in coated fibrin (cFib) assay;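 also: share of dead cells sized under 150 µm2 at 10 µM in fibrin-stimulated microglia HTS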
# [2] = test system: primary rat microglia; assay: Cell toxicity (dead cells, size <150 μm2) in LPS assay
# [3] = test system: fibrin- and LPS-induced microglia activation; assay: cells; format: cell-based, rat
# [4] = test system: LPS-induced microglia activation; assay: Image-based assay of LPS-induced microglia activation (HTS and dose response); format: cell-based, rat; conditions: for inhibition at 10 µM: Rattus norvegicus, Microglia, read-out: LPS % inhibition
# [5] = test system: fibrin-induced microglia activation; assay: Image-based assay of fibrin-induced microglia activation (HTS and dose response); format: cell-based, rat; conditions: for inhibition at 10 µM: Rattus norvegicus, Microglia, read-out: Fibrin % inhibition
# [6] = primary microglia HTS, fibrin stimulation, decreased size (<150 μm^2) as marker of toxicity
# [7] = primary microglia HTS, LPS stimulation, decreased size (<150 μm^2) as marker of toxicity
# [8] = quadrant by fibrin and LPS inhibition in HTS of 1907 compounds
# [9] = primary microglia HTS, LPS stimulation, increased cell size (>800 μm^2) as marker of activation
# [10] = primary microglia HTS, fibrin stimulation, increased cell size (>800 μm^2) as marker of activation
# [11] = primary microglia HTS, 10 μM, fibrin assay, cell size <150 μm^2 as marker of toxicity
# [12] = primary microglia HTS, 10 μM, LPS assay, cell size <150 μm^2 as marker of toxicity
# [13] = HTS of 1907 compounds, quadrant by fibrin and LPS inhibition
# [14] = primary microglia HTS, 10 μM, LPS-stimulated, cell size >800 μm^2 as marker of activation
# [15] = primary microglia HTS, 10 μM, fibrin-stimulated, cell size >800 μm^2 as marker of activation
# [16] = 48 h, primary microglia HTS, LPS stimulation, increased cell size (>800 μm^2) as marker of activation
# [17] = primary HTS, 10 μM, fibrin assay, dead cells size <150 μm2
# [18] = primary HTS, 10 μM, LPS assay, dead cells size <150 μm2
# [19] = primary HTS, 10 μM, LPS-stimulated primary microglia
# [20] = primary HTS, 10 μM, fibrin-stimulated primary microglia
smiles,measurement,setting,value
Cc1ncc(COP(=O)([O-])[O-])c(CN(CCN(CC(=O)[O-])Cc2c(COP(=O)([O-])[O-])cnc(C)c2[O-])CC(=O)[O-])c1[O-].[H+].[H+].[H+].[Mn+2].[Na+].[Na+].[Na+] [Mangafodipir Trisodium],Fibrin % cell toxicity,[1]; [6],1%
same,LPS % cell toxicity,[2]; [7],0%
same,Quadrant (FIG. 5b),[3]; [8],Q4
same,LPS % inhibition,[4]; [9],11%
same,Fibrin % inhibition,[5]; [10],1%
NC(N)=O [Urea],Fibrin % cell toxicity,[1]; [11],1%
same,LPS % cell toxicity,[2]; [12],0%
same,Quadrant (FIG. 5b),[3]; [13],Q4
same,LPS % inhibition,[4]; [14],20%
same,Fibrin % inhibition,[5]; [15],−14%
O=C(O)c1ccccc1OP(=O)(O)O [Fosfosal],Fibrin % cell toxicity,"[1]; primary microglia HTS, fibrin stimulation, toxicity = cell size <150 μm2",0%
same,LPS % cell toxicity,"[2]; primary microglia HTS, LPS stimulation, toxicity = cell size <150 μm2",1%
same,Quadrant (FIG. 5b),[3]; [8],Q4
same,inhibition at 10 µM,"[4]; 48 h, primary microglia HTS, LPS stimulation, activation = cell size >800 μm2",16%
same,inhibition at 10 µM,"[5]; primary microglia HTS, fibrin stimulation, activation = cell size >800 μm2",-29%
Cc1ncc([N+](=O)[O-])n1CC(O)CCl (stereo not shown) [Ornidazole],Fibrin % cell toxicity,[1]; [6],0%
same,LPS % cell toxicity,[2]; [7],0%
same,Quadrant (FIG. 5b),[3]; [8],Q4
same,inhibition at 10 µM,[4]; [16],12%
same,inhibition at 10 µM,[5]; [10],-22%
"CC[C@H](C)C(=O)O[C@H]1CCC=C2C=C[C@H](C)[C@H](CC[C@@H]3C[C@@H](O)CC(=O)O3)[C@H]21 [Compactin, Mevastatin]",Fibrin % cell toxicity,[1]; [6],3%
same,LPS % cell toxicity,[2]; [7],2%
same,Quadrant (FIG. 5b),[3]; [8],Q2
same,LPS % inhibition,[4]; [9],89%
same,Fibrin % inhibition,[5]; [10],105%
C=C[C@H]1C[N@@]2CC[C@H]1C[C@@H]2[C@@H](O)c1ccnc2ccccc12 [Cinchonine],Fibrin % cell toxicity,[1]; [17],1%
same,LPS % cell toxicity,[2]; [18],0%
same,Quadrant (FIG. 5b),"[3]; primary HTS, 10 μM",Q4
same,inhibition at 10 µM,[4]; [19],28%
same,inhibition at 10 µM,[5]; [20],-6%
Cc1c(N(C)CS(=O)(=O)[O-])c(=O)n(-c2ccccc2)n1C.[Na+] [Dipyrone],Fibrin % cell toxicity,[1]; [6],26%
same,LPS % cell toxicity,[2]; [7],36%
same,Quadrant (FIG. 5b),[3]; [8],Q2
same,LPS % inhibition,[4]; [9],101%
same,Fibrin % inhibition,[5]; [10],106%
COC(=O)C1=C(C)NC(C)=C(C(=O)OCCN2CCN(C(c3ccccc3)c3ccccc3)CC2)C1c1cccc([N+](=O)[O-])c1 (stereo not shown) [Manidipine Hydrochloride],Fibrin % cell toxicity,[1]; [6],1%
same,LPS % cell toxicity,[2]; [7],1%
same,Quadrant (FIG. 5b),[3]; [8],Q4
same,inhibition at 10 µM,[4]; [16],12%
same,inhibition at 10 µM,[5]; [10],-43%
CC(C)(CO)C(O)C(=O)NCCCO (stereo not shown) [Panthenol],Fibrin % cell toxicity,[1]; [6],1%
same,LPS % cell toxicity,[2]; [7],0%
same,Quadrant (FIG. 5b),[3]; [8],Q4
same,inhibition at 10 µM,[4]; [16],6%
same,inhibition at 10 µM,[5]; [10],-32%
CCCCOc1cc(C(=O)NCCN(CC)CC)c2ccccc2n1 [Cinchocaine],Fibrin % cell toxicity,[1]; [17],0%
same,LPS % cell toxicity,[2]; [18],0%
same,Quadrant (FIG. 5b),"[3]; primary HTS, 10 μM",Q4
same,inhibition at 10 µM,[4]; [19],7%
same,inhibition at 10 µM,[5]; [20],-57%
C[C@H](Cn1cnc2c(N)ncnc21)OCP(=O)(O)O [Tenofovir],Fibrin % cell toxicity,[1]; [11],0%
same,LPS % cell toxicity,[2]; [12],0%
same,Quadrant (FIG. 5b),[3]; [13],Q4
same,LPS % inhibition,[4]; [14],17%
same,Fibrin % inhibition,[5]; [15],−10%

# — US20210330611A1, “THERAPY FOR NEUROLOGICAL DISEASES/DISORDERS” (priority 2020, published 2021)
